# According to US7553496B2, “VEGF-A as an inhibitor of angiogenesis and methods of using same” (University of Kentucky Research Foundation, priority 2004, dated 2009):
# Entries after “also recorded” stand apart in the source; their conditions may differ.
# Columns and labels:
# laser-induced CNV = test: Laser-induced choroidal neovascularization (CNV) volume, confocal microscopy; type: in vivo, mouse; settings: for effect on VEGF-A-induced suppression of CNV: given with VEGF-A164 after laser injury
# VEGF-A = settings: mouse, in vivo
# [1] = tested on: bone marrow derived endothelial cells (BMDECs); test: Bone marrow derived endothelial cell incorporation in GFP chimeric mice (flow cytometry); type: in vivo, mouse; settings: 0.55 ng
# Source text: We tested the effect of VEGF-A164 injection one day after laser injury in GFP chimeric mice 8 weeks following bone marrow transplantation in mice with engraftment exceeding 90%. In the RPE/choroid, GFP^+ cells were identified only at the site of laser injury and the immediate vicinity (data not shown). The bulk (>60%) of GFP^+ cells in the RPE/choroid following injury expressed either CD11b or F4/80, markers of monocytic lineage, while nearly all (>95%) CD11b^+ and F4/80^+ cells expressed GFP. […] The vast majority (>90%) of GFP^+CD31^+ cells, both in PBS- and VEGF-A164-treated eyes, also expressed CD11b or F4/80.
# (§1) Flow cytometry. Single cell suspensions isolated from mouse RPE/choroids via collagenase D (20 U/ml; Roche Diagnostics) treatment were incubated in Fc block (0.5 mg/ml; BD Pharmingen) for 15 min on ice. Rabbit antibody to mouse VEGFR-1 (1:250; Santa Cruz) coupled with Cy5-donkey antibody to rabbit IgG Ab (1:250) and Phycoerythrin-conjugated rat antibody to mouse VEGFR-2 (1:250; eBioscience) were used to quantitate cell surface receptor expression. […] DNA content was analyzed following incubation with propidium iodide (0.05 mg/ml; Molecular Probes) containing 0.1% Triton X-100 and RNase A (0.1 mg/ml; Roche).
# [2] = tested on: choroidal endothelial cells (CEC); test: Cell cycle distribution of CEC after laser injury (flow cytometry, propidium iodide); settings: mouse, in vivo
# Description: Flow cytometry. Single cell suspensions isolated from mouse RPE/choroids via collagenase D (20 U/ml; Roche Diagnostics) treatment were incubated in Fc block (0.5 mg/ml; BD Pharmingen) for 15 min on ice. Rabbit antibody to mouse VEGFR-1 (1:250; Santa Cruz) coupled with Cy5-donkey antibody to rabbit IgG Ab (1:250) and Phycoerythrin-conjugated rat antibody to mouse VEGFR-2 (1:250; eBioscience) were used to quantitate cell surface receptor expression. Macrophages defined as F4/80^+CD11c^− cells, were gated by rat antibody to mouse Cy5-F4/80 (1:30; Serotec) and hamster antibody to mouse FITC-CD11c (1:100; Serotec), CEC by FITC-conjugated rat antibody to mouse CD31 (1:250; BD Biosciences), and RPE cells by FITC-conjugated mouse antibody to human pan-cytokeratin (1:250; Sigma-Aldrich) staining following fixation with 4% paraformaldehyde and permeabilization with 1% Triton X-100 (Sigma Aldrich) and subjected to FACS analysis (FACSCalibur, BD Biosciences). DNA content was analyzed following incubation with propidium iodide (0.05 mg/ml; Molecular Probes) containing 0.1% Triton X-100 and RNase A (0.1 mg/ml; Roche).
# Ccl-2 = Ccl-2 levels in RPE and choroid after laser injury (ELISA); type: in vivo, mouse
# choroidal macrophages = test: Choroidal macrophage recruitment after laser injury (flow cytometry); type: in vivo, mouse
# Description: Drug treatments. VEGF-A164 (4-12 ng), VEGF-A120 (2.7-27 ng), PLGF-1 (12.5-1,250 ng), mouse PLGF-2 (165-1,650 ng), mouse Ccl-2 (0.55 ng), neutralizing goat antibodies to mouse VEGF-A (5-20 ng), mouse VEGFR-1 (6-18 μg), mouse VEGFR-2 (25-250 ng), or rat NP-1 (200-500 ng; all R&D Systems), recombinant human SPARC (100-300 ng; purified in the laboratory of E. H. Sage) or neutralizing mouse antibody to human SPARC (4-12 μg; purified in the laboratory R. W. Brekken, University of Texas), neutralizing rabbit antibody to rat NP-2 (200-500 ng; gifts of D. D. Ginty, Johns Hopkins University and S. Niclou, Netherlands Institute for Brain Research (Shearer, M. C. et al. The astrocyte/meningeal cell interface is a barrier to neurite outgrowth which can be overcome by manipulation of inhibitory molecules or axonal signalling pathways. […]
# as §1, with “Single cell suspensions isolated from mouse RPE/choroids via collagenase D (20 U/ml; Roche Diagnostics) treatment were incubated in Fc block (0.5 mg/ml; BD Pharmingen) for 15 min on ice.” left out
# VEGFR-1 = VEGFR-1 (Homo sapiens, UniProt P17948); settings: cited from earlier work
# flt3 = settings: read-out: IC50 flt3; cited from earlier work
# [3] = tested on: platelet derived growth factor receptor (PDGFR); settings: cited from earlier work
# c-kit = c-kit (Homo sapiens, UniProt P10721); settings: cited from earlier work
# [4] = agent alone, intravitreous, immediately or one day after laser injury, wild-type mice, vs PBS
# VEGFR-1, sequence (P17948 27-1338, species assumed): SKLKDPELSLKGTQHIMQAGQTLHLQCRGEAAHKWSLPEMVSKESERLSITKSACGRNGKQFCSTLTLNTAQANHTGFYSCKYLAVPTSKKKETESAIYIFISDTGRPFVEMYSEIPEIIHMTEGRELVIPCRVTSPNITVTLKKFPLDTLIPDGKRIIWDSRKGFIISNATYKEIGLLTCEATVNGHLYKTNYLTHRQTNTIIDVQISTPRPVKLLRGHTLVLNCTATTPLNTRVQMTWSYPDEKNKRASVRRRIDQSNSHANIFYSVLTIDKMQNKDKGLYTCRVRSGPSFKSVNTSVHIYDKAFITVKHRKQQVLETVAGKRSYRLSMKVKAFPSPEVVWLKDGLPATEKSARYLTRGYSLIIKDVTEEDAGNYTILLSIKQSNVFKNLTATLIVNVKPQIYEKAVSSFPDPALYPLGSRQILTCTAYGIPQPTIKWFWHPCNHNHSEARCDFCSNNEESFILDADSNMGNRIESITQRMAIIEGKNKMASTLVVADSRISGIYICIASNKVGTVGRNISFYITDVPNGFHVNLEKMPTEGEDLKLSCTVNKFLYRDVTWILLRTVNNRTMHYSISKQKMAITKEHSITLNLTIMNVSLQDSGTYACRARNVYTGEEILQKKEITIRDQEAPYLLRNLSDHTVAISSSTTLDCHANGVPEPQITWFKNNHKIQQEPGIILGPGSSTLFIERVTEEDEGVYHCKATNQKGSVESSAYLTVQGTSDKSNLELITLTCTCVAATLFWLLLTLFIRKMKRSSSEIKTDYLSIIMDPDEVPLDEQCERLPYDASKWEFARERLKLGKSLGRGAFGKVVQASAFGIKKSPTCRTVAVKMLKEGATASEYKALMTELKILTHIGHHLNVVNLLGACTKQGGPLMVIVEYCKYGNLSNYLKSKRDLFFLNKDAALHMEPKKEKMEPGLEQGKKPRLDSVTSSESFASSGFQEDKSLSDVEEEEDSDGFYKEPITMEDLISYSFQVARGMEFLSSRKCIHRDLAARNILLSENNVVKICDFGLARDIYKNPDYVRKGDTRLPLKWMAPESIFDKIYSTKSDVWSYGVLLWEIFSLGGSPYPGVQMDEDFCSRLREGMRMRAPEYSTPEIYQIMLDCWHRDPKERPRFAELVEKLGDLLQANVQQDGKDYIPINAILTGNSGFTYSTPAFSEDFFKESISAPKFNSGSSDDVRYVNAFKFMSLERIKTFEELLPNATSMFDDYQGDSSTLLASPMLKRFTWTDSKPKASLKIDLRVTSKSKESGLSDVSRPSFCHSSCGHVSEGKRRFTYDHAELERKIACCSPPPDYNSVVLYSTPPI
# c-kit, sequence (P10721 26-976): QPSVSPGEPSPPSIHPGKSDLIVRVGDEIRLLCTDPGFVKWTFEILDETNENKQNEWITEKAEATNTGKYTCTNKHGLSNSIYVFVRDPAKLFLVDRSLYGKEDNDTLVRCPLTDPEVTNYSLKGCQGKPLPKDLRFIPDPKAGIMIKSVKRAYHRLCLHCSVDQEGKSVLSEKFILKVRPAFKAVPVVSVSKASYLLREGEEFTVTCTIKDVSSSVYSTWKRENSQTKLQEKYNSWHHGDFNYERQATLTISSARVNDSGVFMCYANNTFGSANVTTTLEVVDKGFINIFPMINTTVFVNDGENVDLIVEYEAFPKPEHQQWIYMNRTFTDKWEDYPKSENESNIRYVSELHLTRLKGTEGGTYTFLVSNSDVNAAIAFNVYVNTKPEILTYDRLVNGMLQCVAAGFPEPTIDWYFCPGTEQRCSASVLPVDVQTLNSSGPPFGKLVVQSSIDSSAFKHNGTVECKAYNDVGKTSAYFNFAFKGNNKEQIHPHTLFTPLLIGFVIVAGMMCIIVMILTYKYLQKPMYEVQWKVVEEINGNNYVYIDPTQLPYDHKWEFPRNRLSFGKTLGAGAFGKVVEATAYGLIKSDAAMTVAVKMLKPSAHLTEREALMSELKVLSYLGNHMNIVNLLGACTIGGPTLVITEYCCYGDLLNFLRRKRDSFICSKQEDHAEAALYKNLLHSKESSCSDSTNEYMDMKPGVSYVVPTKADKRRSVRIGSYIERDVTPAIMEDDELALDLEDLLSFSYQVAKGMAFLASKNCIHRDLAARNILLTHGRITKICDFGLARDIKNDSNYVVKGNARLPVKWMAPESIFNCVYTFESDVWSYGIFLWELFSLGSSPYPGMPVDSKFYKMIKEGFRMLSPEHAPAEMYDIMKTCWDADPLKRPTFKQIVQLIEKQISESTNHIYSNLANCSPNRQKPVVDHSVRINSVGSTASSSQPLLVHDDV
molecule,measurement,setting,value
O.O.O.O.O.O.O.O.O.O=C([O-])[C@@H]1[O][Sb]2([O-])([O][Sb]34([OH])[O][C@H]([C@H](O)CO)[C@H]([O]3)[C@H](C(=O)[O-])[O]4)[O][C@H]([C@H](O)CO)[C@@H]1[O]2.[Na+].[Na+].[Na+] [sodium stibogluconate],effect on VEGF-A-induced suppression of CNV,laser-induced CNV,abolished
Cc1[nH]c(/C=C2\C(=O)Nc3ccc(S(=O)(=O)Cc4c(Cl)cccc4Cl)cc32)c(C)c1C(=O)N1CCC[C@@H]1CN1CCCC1 [PHA665752],effect on VEGF-A-induced suppression of CNV,laser-induced CNV,Neither AG1295 (15 ng) nor PHA665752 (0.4 ng) blocked
[Cl-].[Cl-].[Co+2] [CoCl2],aggregate VEGF-A exposure (area under the curve) higher than after laser injury alone,VEGF-A,52%
same,peak VEGF-A in RPE and choroid relative to maximal level following laser injury alone,VEGF-A,less than double
"Ccl-2: exogenous recombinant Ccl-2, monocyte chemoattractant",effect on VEGF-A164 reduction in vasculogenesis,[1],abrogated
same,effect on clodronate liposome reduction of BMDEC incorporation,[1],did not abrogate
same,effect on CNV inhibited by VEGF-A antibody,laser-induced CNV; 0.55 ng,restored the CNV
same,volume of CNV,laser-induced CNV; Ccl2−/− or Ccr2−/− mice,restores CNV
same,volume of CNV,"laser-induced CNV; Ccl2−/− or Ccr2−/− mice, listed as Recombinant Ccl-2",restored CNV
same,effect on VEGF-A-induced suppression of CNV,laser-induced CNV,abrogates
same,effect on VEGF-A-induced suppression of CNV,laser-induced CNV; listed as recombinant Ccl-2,abrogated
"C=CC1=C(C)c2cc3[n-]c(cc4[n-]c(cc5nc(cc1n2)C(C)=C5C=C)c(C)c4CCC(=O)O)c(CCC(=O)O)c3C.[Zn+2] [ZnPP, zinc protoporphyrin IX]",effect on VEGF-A-induced suppression of CNV,laser-induced CNV,abolished
same,effect on VEGF-A-induced G0/G1 arrest of CEC,[2],reversed
same,effect on VEGF-A-induced suppression of Ccl-2,Ccl-2,abolished
"Cc1cc(C)c(C=C2C(=O)Nc3ccccc32)[nH]1 [SU5416, 3-((2,4-dimethylpyrrol-5-yl)methylidene]-indolin-2-one]",effect on VEGF-A-induced suppression of monocyte recruitment,choroidal macrophages,blocked
same,effect on VEGF-A-induced suppression of CNV,laser-induced CNV,blocked; also recorded: abrogates
same,effect on VEGF-A-induced suppression of Ccl-2,Ccl-2,blocked
OO [H2O2],volume of CNV,laser-induced CNV; [4],decreased the volume of CNV; also recorded: inhibited
"FGF-2: basic fibroblast growth factor, another potent angiogenic cytokine",volume of CNV,laser-induced CNV; [4],did not evoke similar responses; also recorded: minor increases
OB(O)c1cccc(NCc2cc(O)ccc2O)c1 [DBAPBA],effect on VEGF-A-induced suppression of monocyte recruitment,choroidal macrophages,blocked
same,IC50,VEGFR-1,40000 nM
same,effect on VEGF-A-induced suppression of CNV,laser-induced CNV,blocked; also recorded: reversed by DBAPBA in a dose-dependent fashion
same,effect on VEGF-A-induced suppression of Ccl-2,Ccl-2,blocked
"CC(C)c1cc(/C=C(\C#N)C(=O)NCCCc2ccccc2)cc(C(C)C)c1O [SU1498, (E)-3-(3,5-diisopropyl-4-hydroxyphenyl)-2-[(3-phenyl-n-propyl)amino-carbonyl]acrylonitrile]",effect on VEGF-E-induced increase in CNV,laser-induced CNV; after laser injury,blocked
"Cc1cc2ncc(-c3ccccc3)nc2cc1C [AG1295, 6,7-dimethyl-2-phenylquinoxaline]",IC50,flt3,500 nM
same,IC50,[3],400 nM
same,IC50,c-kit,1800 nM
same,effect on VEGF-A-induced suppression of CNV,laser-induced CNV,Neither AG1295 (15 ng) nor PHA665752 (0.4 ng) blocked
"COC(=O)[C@@H](N)CCCNC(=N)N[N+](=O)[O-] [L-NAME, N^ω-nitro-L-arginine methyl ester]",effect on VEGF-A-induced suppression of CNV,laser-induced CNV,did not reverse; also recorded: not affected
"Cc1occc(=O)c1[O-].Cc1occc(=O)c1[O-].[O]=[V+2] [BMOV, bis(maltolato)oxovanadium(IV)]",effect on VEGF-A-induced suppression of CNV,laser-induced CNV,abrogated
"SPARC: recombinant human SPARC, secreted protein, acidic, rich in cysteine (protein, UniProt P09486 18-303, looked up) SPARC: APQQEALPDETEVVEETVAEVTEVSVGANPVQVEVGEFDDGAEETEEEVVAENPCQNHHCKHGKVCELDENNTPMCVCQDPTSCPAPIGEFEKVCSNDNKTFDSSCHFFATKCTLEGTKKGHKLHLDYIGPCKYIPPCLDSELTEFPLRMRDWLKNVLVTLYERDEDNNLLTEKQKLRVKKIHENEKRLEAGDHPVELLARDFEKNYNMYIFPVHWQFGQLDQHPIDGYLSHTELAPLRAPLIPMEHCTTRFFETCDLDNDKYIALDEWAGCFGIKQKDIDKDLVI",inhibition of VEGFR-1 kinase activity,"VEGFR-1; in vitro, literature",inhibits the kinase activity of VEGFR-1
same,volume of CNV,laser-induced CNV; [4],did not alter CNV
same,effect on VEGF-A-induced suppression of CNV,laser-induced CNV,abolished
same,effect on VEGF-A-induced suppression of CNV,laser-induced CNV; listed as recombinant human SPARC,dose-dependently abolished
